From US20240189408A1, “COMPOSITIONS AND METHODS FOR REDUCING METHANE EMISSIONS IN RUMINANT POPULATIONS” (Arkea Bio Corp., priority 2022, published 2024)
Read-outs that look alike come from different tables or passages of the source.

Assays:
[1] = test system: Methanomicrobium mobile; settings: cited from earlier work
[2] = test system: Mbb. Ruminantium; settings: cited from earlier work
[3] = test system: Methanosarcina mazei; settings: cited from earlier work
[4] = Adsorbent study: binding affinity and adsorptive capacity for 3-NOP, HPLC at 230 nm
Description: The solution was then placed in an ultrasonic bath for ˜4 hr and then allowed to equilibrate over 24h.

[5] = 3-NOP to adsorbent ratio study; type: physicochemical; settings: 24 hr, HPLC
Description: Optimal loading of 3-NOP onto adsorbents was determined by varying ratios of 3-NOP to adsorbent. 3-NOP and adsorbent were speed mixed at 2000 rpm for 1 min at the following ratios by weight: 1:1.5, 1:2, 1:2.5. The adsorbed 3-NOP powder mixture was then placed in distilled water at 1% 3-NOP loading. The solution was allowed to equilibrate for 24 hr and then an aliquot was taken for HPLC to determine the reduction in 3-NOP concentration.

[6] = test system: rumen methanogens; settings: sheep, cited from earlier work
[7] = test system: methane production in ruminants; settings: cited from earlier work
[8] = 3-NOP pH and temperature stability by HPLC; type: physicochemical; settings: 1-month, 4-30C, pH 4-10
Source text: 3-NOP pH and Temperature Stability: Confirmed via HPLC over a 1-month time period at temperature between 4-30C and pH 4-10.

[9] = 3-NOP volatility, mass loss open to air; type: physicochemical; settings: 500 mg in 5 dram vial open to air, ~18-24C, 15-30% RH, 6 days
Description: 3-NOP Volatility:500 mg of 3-NOP in a 5 dram vial was left open to air at ˜18-24C at 15-30% RH over the course of 6 days. Average mass loss is ˜0.25% per day.

[10] = test system: rumen methanogens; settings: cited from earlier work
[11] = test system: rumen Methanobrevibacter; settings: 5.6 μmol/L, in vitro; rumen bacteria not inhibited; cited from earlier work
[12] = test system: rumen methanogens; settings: cited from earlier work; remark: listed apart in the source
[13] = test system: Methanobrevibacter ruminantium; assay: Methane production of methanogen monocultures treated with sera from vaccinated animals; type: cell-based; settings: small molecule inhibitor at 3 different concentrations, FIG. 17B
Description: Briefly, BY medium is inoculated with a methanogen-of-interest and combined with serum. The culture tube is crimped closed and pressurized with 80% hydrogen, 20% carbon dioxide. The cultures are incubated and methane in measured intermittently using a GazoMat handheld methane monitoring device. Methane is plotted as a function of time for the various treatment groups and the control group.
200 uL of serum from vaccinated animals were added to sterile anaerobic culture tubes. Open plasma containing tubes were placed into an anaerobic chamber containing 95% nitrogen and 5% hydrogen and allowed to stand 1 hr at ambient temperature. A single seeded culture of methanogen (M. gottschalkii or M. ruminantium) was prepared in BY medium at a volume sufficient to distribute 2.5 mL to each plasma sample and control tube. 2.5 mL of methanogen culture was added to each tube containing the serum, a septa was inserted and crimped into place. Sealed tubes were removed from the anaerobic chamber and each was pressurized with 25 PSI 80% H2, 20% CO2 gas via a hypodermic needle through the septum. Tubes were placed into a 38° C. shaking incubator and periodically removed for methane measurements. Methane measurements in the tube headspace were made with a handheld remote methane detector using a jig to hold the instrument and tube during measurement.

[14] = test system: rumen methanogens; settings: goats, 10 g/day/goat; cited from earlier work
[15] = 3-NOP:Adsorbent 1:1.5, distilled water at 1% 3-NOP loading
[16] = 3-NOP:Adsorbent 1:2, distilled water at 1% 3-NOP loading
[17] = 3-NOP:Adsorbent 1:2.5, distilled water at 1% 3-NOP loading
[18] = 0.06 to 0.24 mmol/L, dose-dependent
[19] = 0.2 g of adsorbent in 10 mL of 1% 3-NOP/H2O, after 24h, control 8.258 mM

Compound: O=S(=O)([O-])CCBr.[Na+] [BES, 2-bromoethanesulfonate]
- sensitivity to the inhibitor, ranking of three species ([1]; pure cultures): intermediate
- sensitivity to the inhibitor, ranking of three species ([2]; pure cultures): most sensitive
- sensitivity to the inhibitor, ranking of three species ([3]; pure cultures): least sensitive

Compound: CC#CC(=O)OCC [ethyl 2-butynoate]
- sensitivity to the inhibitor, ranking of three species ([1]; pure cultures): intermediate
- sensitivity to the inhibitor, ranking of three species ([2]; pure cultures): most sensitive
- sensitivity to the inhibitor, ranking of three species ([3]; pure cultures): least sensitive

Compound: 3-bromopropanesulfonate [BPS]
- concentration up to which the species appeared resistant ([1]; pure cultures): 250 µmol/L
- concentration up to which the species appeared resistant ([2]; pure cultures): 250 µmol/L
- concentration up to which the species appeared resistant ([3]; pure cultures): 250 µmol/L

Compound: NCCCC[C@H](N)C(=O)O [Lysine]
- 3-NOP concentration [4]: 18.583 mM
- Average Integrated Area of 3-NOP in solution [5, 15]: 2336.2
- Average Integrated Area of 3-NOP in solution [5, 16]: 2308.9
- Average Integrated Area of 3-NOP in solution [5, 17]: 2266.6

Compound: O=c1[nH]c(=O)c2nccnc2[nH]1 [lumazin, 2,4-pteridinedione]
- CH4 production [1, 18]: significantly decreased
- CH4 production [2, 18]: significantly decreased
- CH4 production [3, 18]: significantly decreased

Compound: O=[N+]([O-])OCCCO [3-NOP, 3-nitrooxypropanol]
- decrease of CH4 production ([6]; 0.5 g/day): 29%
- Addition amount; maximum methane suppression amount ([7]; 0.08 mg/g dry matter (Alvarez-Hess et al., 2019)): 0.08 mg/g dry matter; 44%
- Addition amount; maximum methane suppression amount ([7]; 60 mg/kg of feed dry matter (Melgar et al., 2020)): 26%/day (Melgar et al., 2020)
- Addition amount; maximum methane suppression amount ([7]; 1.6 g, concentrate pellet (Van Wesemael et al., 2019)): 23%
- Addition amount; maximum methane suppression amount ([7]; 1.6 g, roughage (Van Wesemael et al., 2019)): 28%
- Average Integrated Area of 3-NOP in solution [5, 15]: 2566.4
- Average Integrated Area of 3-NOP in solution [5, 16]: 2566.4
- Average Integrated Area of 3-NOP in solution [5, 17]: 2566.4
- pH and Temperature Stability [8]: Confirmed
- Average mass loss [9]: ~0.25 % per day
- decrease of CH4 yield ([10]; beef cattle, 2.0 g/day/cow): 59%
- persistence of the inhibition ([10]; beef cattle, 2.0 g/day/cow): up to 112 days
- decrease of CH4 production ([10]; dairy cows, 40-80 mg/kg feed DM, persistently for up to 84 days): about 30%
- degree of CH4 suppression ([10]; directly added to the rumen through rumen cannula, daily dose 0.50 or 2.5 g per cow): 7-10%

Compound: CC[C@H](C)C(=O)O[C@H]1CCC=C2C=C[C@H](C)[C@H](CC[C@@H]3C[C@@H](O)CC(=O)O3)[C@H]21 [mevastatin]
- growth [11]: inhibited the growth of all three strains

Compound: O=S(=O)([O-])[O-].[Cu+2] [Copper Sulfate]
- 3-NOP concentration [4, 19]: 7.814 mM

Compound: CC[N+](=O)[O-] [nitroethane]
- decrease of CH4 production ([6]; orally 24 mg/kg body weight daily for 5 days): up to 45%
- decrease of CH4 production ([6]; orally 72 mg/kg body weight daily for 5 days): ≤ 69%
- Addition amount; maximum methane suppression amount ([7]; 10 mmol/L): 10 mmol/L; 96.7% (NE),

Compound: C#CC(=O)O [propynoic acid]
- sensitivity to the inhibitor, ranking of three species ([1]; pure cultures): intermediate
- sensitivity to the inhibitor, ranking of three species ([2]; pure cultures): most sensitive
- lowering of CH4 production ([12]; 6 mmol/L): 67%
- lowering of CH4 production ([12]; 12 mmol/L): 78%
- sensitivity to the inhibitor, ranking of three species ([3]; pure cultures): least sensitive

Compound: NC(=O)CC[C@H](N)C(=O)O [Glutamine]
- 3-NOP concentration [4, 19]: 7.588 mM

Compound: C[N+](C)(C)CC(=O)O [Betaine]
- 3-NOP concentration [4, 19]: 7.202 mM

Compound: Cyclodextrin
- 3-NOP concentration [4, 19]: 7.676 mM

Compound: CCCCCCCCCCCC(=O)O [lauric acid]
- methane production rate [13]: reduction is methane production rate

Compound: O=C(O)/C=C/C(=O)O [fumarate]
- decrease of abundance of methanogens and CH4 production [14]: 11.9%
- decrease of CH4 production ([12]; 3.5 g/L, continuous fermenters with forages as a substrate): 38%

Compound: O=S(=O)([O-])[O-].O=S(=O)([O-])[O-].O=S(=O)([O-])[O-].[Bi+3].[Bi+3] [Bismuth Sulfate]
- 3-NOP concentration [4, 19]: 8.079 mM

Compound: O=C([O-])CC(O)(CC(=O)[O-])C(=O)[O-].[Bi+3] [Bismuth Citrate]
- 3-NOP concentration [4, 19]: 8.072 mM
